Activity calls are given as the source filed them.
How the values were obtained:
Protein skinhead-1 = target: T1, Protein skinhead-1 (Caenorhabditis elegans, UniProt P34707); format: functional
T1 sequence (P34707 whole entry): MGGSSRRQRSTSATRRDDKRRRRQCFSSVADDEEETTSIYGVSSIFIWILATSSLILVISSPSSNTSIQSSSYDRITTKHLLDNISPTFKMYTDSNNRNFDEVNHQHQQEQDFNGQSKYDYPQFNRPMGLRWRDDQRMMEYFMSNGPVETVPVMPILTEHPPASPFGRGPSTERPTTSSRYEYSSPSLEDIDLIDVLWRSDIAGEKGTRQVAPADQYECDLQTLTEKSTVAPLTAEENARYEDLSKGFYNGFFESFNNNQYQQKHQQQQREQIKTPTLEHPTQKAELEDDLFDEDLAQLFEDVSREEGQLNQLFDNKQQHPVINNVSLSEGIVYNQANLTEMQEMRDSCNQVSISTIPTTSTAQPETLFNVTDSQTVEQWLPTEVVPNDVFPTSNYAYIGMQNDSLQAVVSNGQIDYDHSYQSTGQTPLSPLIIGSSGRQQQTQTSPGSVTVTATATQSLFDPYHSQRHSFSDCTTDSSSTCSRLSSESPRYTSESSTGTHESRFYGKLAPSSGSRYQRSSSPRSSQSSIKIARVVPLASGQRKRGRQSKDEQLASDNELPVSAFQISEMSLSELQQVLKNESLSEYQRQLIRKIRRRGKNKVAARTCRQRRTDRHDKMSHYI

Fatty acid synthase [1] = target: T2, Fatty acid synthase (Homo sapiens, UniProt P49327); test: FAS thioesterase domain inhibitors, dose response, biochemical, kinetic fluorescence intensity (AID 624326); format: functional;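 also: rate of fluorescence rise from hydrolysis of a fluorogenic O-methyl fluorescein ester substrate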
Fatty acid synthase [2] = target: T2, Fatty acid synthase; test: FAS thioesterase domain inhibitors, dose response, biochemical, endpoint fluorescence intensity, uHTS hits (AID 624327); format: functional;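 also: fluorescence from hydrolysis of an O-methyl fluorescein acyl ester substrate by the enzyme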
[3] = inhibitors of firefly luciferase expression or activity, dose response, H4 neuroglioma cells, luminescence (AID 1990); format: functional, cell-based
[4] = inhibitors of SNCA 5'UTR-driven reporter translation, confirmation, H4 neuroglioma cells, luminescence (AID 1988); format: functional, cell-based
[5] = HEp-2 cell cytotoxicity, dose response, cytotoxicity control for RSV inhibitor project, HTS (AID 2410); format: functional; details: human respiratory syncytial virus
[6] = Luminescence Cell-Based Dose Response HTS to Identify Inhibitors of 5'UTR Stem-Loop Driven Prion Protein mRNA Translation in H4 Neuroglioblastoma Cells. [Related pubchem assays: 1827 (Project Summary), 1813 (Primary HTS)]; format: functional
[7] = ZM109 Env clade C HIV-1 fusion inhibitors, dose response, HeLa effector, CEM target cells, luciferase, cherry-pick (AID 652058); format: functional, cell-based
[8] = inhibitors of clade B AD8 Env fusion, dose response, cell-based, cherry-pick (AID 652062); format: functional;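 also: luciferase signal from cell-cell fusion driven by HIV-1 clade B AD8 Env; potency is for inhibitors of fusion seen as a drop in luminescence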
[9] = inhibitors of HIV Env-driven cell fusion, dose response, cherry-pick (AID 652057); format: functional, cell-based
Cytochrome P450 2C19 = Cytochrome P450 2C19 (Homo sapiens, UniProt P33261); test: Cytochrome panel assay with activity outcomes. Panel member name: p450-cyp2c19 Compounds with AC50 equal or less than 10 uM are considered active; format: functional; details: read-out: AC50
[10] = microbe, parasite or virus in culture; format: functional; details: Mycobacterium tuberculosis
Protein RecA = target: T3, Protein RecA (Mycobacterium tuberculosis, UniProt P9WHJ3); test: Fluorescence Cell-Free Homogeneous Dose Retest to Identify Inhibitors of RecA-Intein Splicing Activity. [Related pubchem assays (depositor defined):AID2097, AID2223, AID489010, AID492950]; format: functional
T3 sequence (P9WHJ3 whole entry): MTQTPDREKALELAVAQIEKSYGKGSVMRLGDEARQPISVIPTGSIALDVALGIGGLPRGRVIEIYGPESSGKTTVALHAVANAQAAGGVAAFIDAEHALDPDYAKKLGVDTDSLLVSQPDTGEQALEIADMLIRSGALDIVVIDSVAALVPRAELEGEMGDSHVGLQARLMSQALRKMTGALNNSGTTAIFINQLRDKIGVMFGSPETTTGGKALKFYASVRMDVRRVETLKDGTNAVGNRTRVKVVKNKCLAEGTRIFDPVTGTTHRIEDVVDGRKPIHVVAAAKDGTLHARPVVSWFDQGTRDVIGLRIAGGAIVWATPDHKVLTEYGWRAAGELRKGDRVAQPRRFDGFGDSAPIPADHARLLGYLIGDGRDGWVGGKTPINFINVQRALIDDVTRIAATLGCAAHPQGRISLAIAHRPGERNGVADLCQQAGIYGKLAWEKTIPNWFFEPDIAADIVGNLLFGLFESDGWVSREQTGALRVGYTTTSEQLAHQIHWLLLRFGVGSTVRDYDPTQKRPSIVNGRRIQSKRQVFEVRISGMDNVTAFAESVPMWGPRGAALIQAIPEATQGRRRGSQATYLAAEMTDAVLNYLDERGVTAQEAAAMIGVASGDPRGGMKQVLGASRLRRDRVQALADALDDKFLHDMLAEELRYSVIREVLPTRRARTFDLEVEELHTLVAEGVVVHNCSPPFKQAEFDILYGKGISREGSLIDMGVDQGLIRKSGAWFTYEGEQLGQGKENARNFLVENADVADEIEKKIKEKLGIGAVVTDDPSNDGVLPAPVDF

[11] = growth suppression of beta-catenin-knockout colon cells, dose response, cell-based, HCT116, human colon tumor (AID 1045); format: functional;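 also: HCT116 colon tumor cells with beta catenin knocked out; cells exposed to compound for 60 hours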
[12] = growth suppression of PTEN-null colon cells, dose response, cell-based, HCT116 PTEN knockout (AID 1047); format: functional;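 also: HCT116 colon tumor cells with PTEN knocked out; cells exposed to compound for 60 hours before readout; potency for loss of cell viability measured by luminescence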
[13] = target: T4, Replicative DNA helicase DnaB (Mycobacterium tuberculosis, UniProt P9WMR3); test: DnaB intein splicing inhibitors, dose response, biochemical, cell-free fluorescence (AID 449749); format: functional
T4 sequence (P9WMR3 whole entry): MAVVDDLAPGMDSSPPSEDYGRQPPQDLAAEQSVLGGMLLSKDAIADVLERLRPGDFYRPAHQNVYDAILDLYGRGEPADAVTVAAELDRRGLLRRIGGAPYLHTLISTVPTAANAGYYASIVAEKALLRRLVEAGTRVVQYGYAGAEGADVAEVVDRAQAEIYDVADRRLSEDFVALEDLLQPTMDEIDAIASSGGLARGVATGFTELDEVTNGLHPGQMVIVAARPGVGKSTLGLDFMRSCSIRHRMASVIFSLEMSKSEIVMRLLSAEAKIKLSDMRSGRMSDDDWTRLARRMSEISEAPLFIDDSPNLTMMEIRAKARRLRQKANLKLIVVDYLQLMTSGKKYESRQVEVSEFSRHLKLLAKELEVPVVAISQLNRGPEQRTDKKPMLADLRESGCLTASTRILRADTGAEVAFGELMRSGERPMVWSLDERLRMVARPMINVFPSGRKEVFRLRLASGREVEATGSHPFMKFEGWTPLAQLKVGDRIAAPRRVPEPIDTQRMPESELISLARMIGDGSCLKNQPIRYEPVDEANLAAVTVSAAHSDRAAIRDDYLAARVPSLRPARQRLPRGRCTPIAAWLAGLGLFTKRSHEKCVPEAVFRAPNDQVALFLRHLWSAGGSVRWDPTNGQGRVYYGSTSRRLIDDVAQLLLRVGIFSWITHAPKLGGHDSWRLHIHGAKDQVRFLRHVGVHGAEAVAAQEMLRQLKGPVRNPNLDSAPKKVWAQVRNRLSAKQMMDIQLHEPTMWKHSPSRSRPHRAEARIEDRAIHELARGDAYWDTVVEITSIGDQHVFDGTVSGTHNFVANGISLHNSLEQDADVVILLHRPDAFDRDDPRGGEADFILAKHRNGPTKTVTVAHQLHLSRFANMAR

Vero = test: cells; format: functional; details: Chlorocebus sabaeus
Nonstructural protein 1 = Nonstructural protein 1 (Influenza A virus, UniProt Q194T2); format: functional, Influenza A virus (A/California/07/2009(H1N1))
[14] = HepG2 cell cytotoxicity, dose response, cytotoxicity control for Shn3 inhibitor project, CellTiter-Glo, cherry-picked (AID 624134); format: functional, cell-based
[15] = control 3'UTR Renilla luciferase suppression, dose response, counter-screen for Shn3 inhibitor project, cell-based, Clone20-Shn3RL, cherry-picked (AID 624133); format: functional
[16] = Shn3 3'UTR reporter inhibitors, dose response, cell-based, Clone20 osteoblasts, firefly luciferase, cherry-picked (AID 624132); format: functional;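 also: firefly luciferase luminescence from reporter carrying the Shn3 3'UTR in osteoblasts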

T2 sequence (P49327 whole entry, the tested form may be a part): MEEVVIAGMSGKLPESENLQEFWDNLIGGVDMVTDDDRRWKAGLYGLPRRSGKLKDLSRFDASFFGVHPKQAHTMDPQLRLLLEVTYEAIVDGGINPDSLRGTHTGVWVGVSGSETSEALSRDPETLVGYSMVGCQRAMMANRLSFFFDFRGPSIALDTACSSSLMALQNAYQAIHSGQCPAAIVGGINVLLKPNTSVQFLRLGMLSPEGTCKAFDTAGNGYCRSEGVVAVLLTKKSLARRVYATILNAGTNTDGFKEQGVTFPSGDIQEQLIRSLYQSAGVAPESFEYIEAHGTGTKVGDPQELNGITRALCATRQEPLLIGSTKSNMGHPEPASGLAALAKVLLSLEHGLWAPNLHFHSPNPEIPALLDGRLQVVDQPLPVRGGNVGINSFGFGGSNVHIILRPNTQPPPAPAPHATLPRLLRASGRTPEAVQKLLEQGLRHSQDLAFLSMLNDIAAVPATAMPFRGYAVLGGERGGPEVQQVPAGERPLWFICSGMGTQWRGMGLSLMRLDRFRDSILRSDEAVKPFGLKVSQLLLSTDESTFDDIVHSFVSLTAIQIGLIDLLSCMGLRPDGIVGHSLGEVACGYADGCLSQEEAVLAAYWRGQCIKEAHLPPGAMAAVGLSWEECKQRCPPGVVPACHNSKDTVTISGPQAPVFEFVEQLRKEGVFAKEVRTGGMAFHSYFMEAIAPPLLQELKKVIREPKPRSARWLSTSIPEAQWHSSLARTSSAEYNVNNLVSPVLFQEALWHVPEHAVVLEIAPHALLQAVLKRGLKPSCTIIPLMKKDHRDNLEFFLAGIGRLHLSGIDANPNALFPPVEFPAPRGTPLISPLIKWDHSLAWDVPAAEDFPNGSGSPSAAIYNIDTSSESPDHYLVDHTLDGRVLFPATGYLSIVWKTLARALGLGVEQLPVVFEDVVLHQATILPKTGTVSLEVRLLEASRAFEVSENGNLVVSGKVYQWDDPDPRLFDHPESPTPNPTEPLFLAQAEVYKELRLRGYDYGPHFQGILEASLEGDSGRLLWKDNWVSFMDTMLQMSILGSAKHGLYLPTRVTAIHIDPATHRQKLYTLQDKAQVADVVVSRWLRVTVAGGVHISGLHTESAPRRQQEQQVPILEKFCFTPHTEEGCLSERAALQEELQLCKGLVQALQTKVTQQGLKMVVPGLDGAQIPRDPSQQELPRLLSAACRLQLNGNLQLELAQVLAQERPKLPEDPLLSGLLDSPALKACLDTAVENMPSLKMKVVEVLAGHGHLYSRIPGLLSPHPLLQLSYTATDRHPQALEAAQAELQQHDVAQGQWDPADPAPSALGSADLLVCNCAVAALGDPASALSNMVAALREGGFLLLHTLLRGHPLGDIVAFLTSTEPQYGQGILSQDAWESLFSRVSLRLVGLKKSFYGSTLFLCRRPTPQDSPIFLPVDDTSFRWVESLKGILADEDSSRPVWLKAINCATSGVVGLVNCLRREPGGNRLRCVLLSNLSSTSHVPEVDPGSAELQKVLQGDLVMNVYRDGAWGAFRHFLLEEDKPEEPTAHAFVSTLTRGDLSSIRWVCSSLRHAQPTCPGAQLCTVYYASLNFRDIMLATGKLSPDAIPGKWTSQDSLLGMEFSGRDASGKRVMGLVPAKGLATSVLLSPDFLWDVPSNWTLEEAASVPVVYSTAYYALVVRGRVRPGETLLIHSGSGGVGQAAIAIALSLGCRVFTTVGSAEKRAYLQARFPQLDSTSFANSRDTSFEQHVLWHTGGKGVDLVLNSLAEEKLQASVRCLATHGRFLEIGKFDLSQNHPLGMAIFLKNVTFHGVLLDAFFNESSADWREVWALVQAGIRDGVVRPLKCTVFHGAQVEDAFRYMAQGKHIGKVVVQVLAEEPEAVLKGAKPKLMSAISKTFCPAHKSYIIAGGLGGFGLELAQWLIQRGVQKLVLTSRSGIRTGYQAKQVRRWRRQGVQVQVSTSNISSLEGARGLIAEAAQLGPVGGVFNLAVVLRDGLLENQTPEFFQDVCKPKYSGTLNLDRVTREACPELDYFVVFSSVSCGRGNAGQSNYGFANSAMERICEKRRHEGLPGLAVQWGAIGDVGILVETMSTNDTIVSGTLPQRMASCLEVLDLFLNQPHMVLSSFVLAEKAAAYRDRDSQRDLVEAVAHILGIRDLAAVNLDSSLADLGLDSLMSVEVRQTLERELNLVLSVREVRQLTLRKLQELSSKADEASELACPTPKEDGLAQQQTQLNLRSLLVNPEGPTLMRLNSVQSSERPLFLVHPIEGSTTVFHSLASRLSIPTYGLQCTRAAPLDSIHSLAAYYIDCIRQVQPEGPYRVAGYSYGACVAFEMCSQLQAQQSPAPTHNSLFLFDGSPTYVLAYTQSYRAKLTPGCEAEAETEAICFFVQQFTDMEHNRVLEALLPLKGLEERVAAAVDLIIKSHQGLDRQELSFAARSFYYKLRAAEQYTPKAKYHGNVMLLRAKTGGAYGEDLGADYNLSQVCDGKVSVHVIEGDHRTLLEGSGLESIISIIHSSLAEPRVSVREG
Sequence of Cytochrome P450 2C19 (P33261 whole entry): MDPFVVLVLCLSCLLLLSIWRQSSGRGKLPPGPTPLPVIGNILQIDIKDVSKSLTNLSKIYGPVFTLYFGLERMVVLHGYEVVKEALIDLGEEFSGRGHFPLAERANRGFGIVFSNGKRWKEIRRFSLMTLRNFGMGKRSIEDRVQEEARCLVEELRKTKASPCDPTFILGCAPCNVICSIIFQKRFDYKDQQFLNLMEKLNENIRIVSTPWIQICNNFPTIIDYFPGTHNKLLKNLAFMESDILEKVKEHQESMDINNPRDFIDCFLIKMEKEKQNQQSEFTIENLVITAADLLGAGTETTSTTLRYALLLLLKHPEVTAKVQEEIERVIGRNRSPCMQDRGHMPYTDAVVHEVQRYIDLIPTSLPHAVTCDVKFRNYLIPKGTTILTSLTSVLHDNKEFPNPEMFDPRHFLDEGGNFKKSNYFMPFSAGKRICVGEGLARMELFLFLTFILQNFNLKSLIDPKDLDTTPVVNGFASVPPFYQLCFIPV
Sequence of Nonstructural protein 1 (Q194T2 whole entry): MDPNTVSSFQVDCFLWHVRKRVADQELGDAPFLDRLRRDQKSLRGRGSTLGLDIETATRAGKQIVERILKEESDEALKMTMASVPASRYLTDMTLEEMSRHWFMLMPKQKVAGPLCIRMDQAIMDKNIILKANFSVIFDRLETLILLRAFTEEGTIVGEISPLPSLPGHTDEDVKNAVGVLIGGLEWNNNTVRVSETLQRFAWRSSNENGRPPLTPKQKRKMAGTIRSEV

CC(=O)Nc1sc(/C(C#N)=C\c2cccc(Cl)c2)nc1-c1ccc(C)cc1
IC50 (Protein skinhead-1): > 100 µM (inactive)

Cc1ccc(OCCNC(=O)CNC(=O)c2ccc(Cl)c([N+](=O)[O-])c2)cc1
IC50 (Fatty acid synthase [1]): 9.71 µM (active)
IC50 (Fatty acid synthase [2]): 8.99 µM (active)

CCN(CC)S(=O)(=O)c1ccc(C2=NOC3(C2)N(C)c2ccccc2C3(C)C)cc1 (centres undefined)
EC50 [3]: > 120 µM (not active)
EC50 [4]: 0.516 µM (active)
CC50 [5]: > 50 µM (active)
EC50 [6]: 29 µM (active)

Cc1cc2c(=O)oc(-c3ccccc3Br)nc2s1
IC50 (Fatty acid synthase [1]): 8.01 µM (active)
IC50 (Fatty acid synthase [2]): 7.57 µM (active)

O=C(C[C@H]1C=C[C@@H](NC(=O)Nc2ccccc2F)[C@@H](CO)O1)NCc1ccc(-c2ccccc2)cc1
AC50 [7]: < 0.26 µM (active)
AC50 [8]: < 0.26 µM (active)
AC50 [9]: < 0.26 µM (active)

COc1cccc(-n2c(CN3CCN(c4ccccn4)CC3)nc3ccc([N+](=O)[O-])cc3c2=O)c1
IC50 (Fatty acid synthase [1]): 3.67 µM (active)
IC50 (Fatty acid synthase [2]): 3.23 µM (active)

Cc1ccc(-c2csc(-c3ccncc3)n2)cc1
IC50 (Protein skinhead-1): 65.2 µM (inactive)

Clc1ccc2oc(-c3cccnc3)nc2c1
AC50 (Cytochrome P450 2C19): 14.1 µM (inconclusive)
IC50 (Protein skinhead-1): 29 µM (active)

C[C@H](CO)N1C[C@H](C)[C@H](CN(C)S(=O)(=O)c2ccccc2)Oc2ccc(NC(=O)Cn3cnnn3)cc2CC1=O
AC50 [7]: 2.07 µM (active)
AC50 [8]: 20.3 µM (active)
AC50 [9]: 13.5 µM (active)

COC(=O)c1c(NC(=O)CCl)sc(C(=O)N2CCOCC2)c1C
CC50 [10]: 16.4 µM (active)

Cc1c(NC(=O)CCC2CCCCC2)cc(C(=O)N2CCOCC2)cc1[N+](=O)[O-]
EC50 [3]: > 120 µM (not active)
EC50 [4]: > 120 µM (not active)
EC50 [6]: > 120 µM (not active)

Clc1ccc(Sc2oc(/C=N/n3cnnc3)cc2Br)cc1
EC50 (Protein RecA): 8.65 µM (active)
EC50 [11]: 43.8 µM (active)
EC50 [12]: 15.2 µM (active)
AC50 [13]: 2 µM (active)

Cc1ccc(S(=O)(=O)Nc2ccc3c(c2)CC(=O)N([C@@H](C)CO)C[C@H](C)[C@H](CN(C)S(=O)(=O)c2ccccc2)O3)cc1
AC50 [7]: 15.5 µM (active)
AC50 [8]: 34.2 µM (active)
AC50 [9]: 14.7 µM (active)

C=CCn1c(SCc2cc(=O)n3ccsc3n2)nc2sc(C)c(C)c2c1=O
EC50 [3]: 15.3 µM (active)
EC50 [4]: > 120 µM (not active)
EC50 [6]: > 120 µM (not active)

Cc1cc(C)c2cc(C#N)c(N3CCCC3)nc2c1
IC50 (Protein skinhead-1): > 100 µM (inactive)

COc1ccccc1N1CCN(CC(O)c2c(C)[nH]c3ccccc23)CC1 (centres undefined)
CC50 (Vero): > 25 µM (active)

CCN(Cc1ccccc1)c1ccc(N=Nc2nn(C)c(C)c2[N+](=O)[O-])cc1
IC50 (Fatty acid synthase [1]): 7.95 µM (active)
IC50 (Fatty acid synthase [2]): 13.9 µM (active)
IC50 (Nonstructural protein 1): 9.29 µM (active)

O=C(NC1CC1)c1cc(-c2ccc(Br)cc2)nc2ccccc12
IC50 (Protein skinhead-1): > 100 µM (inactive)

CC(C)C[C@H]1CN([C@@H](CC(C)C)CN2CCCC2CN2C(=S)NC[C@@H]2Cc2ccc(O)cc2)C(=S)N1CC1CCCCCC1 (some centres undefined)
CC50 (Vero): 20.9 µM (active)

O=C1CC(c2cccc([N+](=O)[O-])c2)c2c(ccc3ccccc23)N1 (centres undefined)
IC50 (Fatty acid synthase [1]): 56.4 µM (inactive)
IC50 (Fatty acid synthase [2]): 52.2 µM (inactive)

O=[N+]([O-])c1ccc(C2CC(c3ccccc3)=Nc3ccccc3S2)cc1 (centres undefined)
CC50 [10]: 37.4 µM (active)

Clc1ccc(-c2cn3c(n2)-c2ccccc2C3)cc1Cl
IC50 (Protein skinhead-1): > 100 µM (inactive)

O=C(Nc1cccc(C(=O)O)c1)/C(=C\c1cccc([N+](=O)[O-])c1)NC(=O)c1ccc(Br)cc1
IC50 (Fatty acid synthase [1]): 5.19 µM (active)
IC50 (Fatty acid synthase [2]): 4.62 µM (active)

CC(C)OC(=O)CC(=O)CSc1nc2c(cc1C#N)CCC2
EC50 [11]: 8.4 µM (active)
EC50 [12]: 5.82 µM (active)

N#Cc1cc(C(=O)c2ccccc2OCC(=O)Nc2ccccc2Cl)cn(C2CCCCC2)c1=O
EC50 [3]: 22 µM (active)
EC50 [4]: > 120 µM (not active)
EC50 [6]: > 120 µM (not active)

Cc1ccc(C)c(S(=O)(=O)N2CCN(C(=O)C3CCN(c4ncnc5sc(C)c(C)c45)CC3)CC2)c1
AC50 [14]: > 70 µM (inactive)
AC50 [15]: 2.29 µM (active)
AC50 [16]: 2.82 µM (active)

O=C(CN1CCCC1c1cccs1)Nc1cc(S(=O)(=O)N2CCCCC2)ccc1Cl (centres undefined)
AC50 [14]: 60.5 µM (active)
AC50 [15]: 6.82 µM (active)
AC50 [16]: 14.4 µM (active)

Cn1nc(C(C)(C)C)cc1C(=O)N1CCCCC1c1cc(C(=O)Nc2cccc3c2CCCC3)no1 (centres undefined)
AC50 [14]: 62.8 µM (active)
AC50 [15]: 16.5 µM (active)
AC50 [16]: 10.2 µM (active)

O=C(Nc1ccc(C2CC2(Cl)Cl)cc1)c1ccccc1Br (centres undefined)
IC50 (Protein skinhead-1): 70 µM (inactive)

CCOC(=O)C(C(=O)OCC)C(C(=O)OCC)N1CCOCC1 (centres undefined)
EC50 [11]: 5.16 µM (active)
EC50 [12]: 6.34 µM (active)

COC(=O)C1=C(c2ccc(OCc3ccccc3)cc2)C[C@@H]2CC[C@H]1N2C(=O)NCc1ccc(C(C)(C)C)cc1
AC50 [14]: > 70 µM (inactive)
AC50 [15]: 1.63 µM (active)
AC50 [16]: 6.84 µM (active)

COC(=O)C1=C(C)N(c2cc(Cl)cc(Cl)c2)C(=O)C1
EC50 [11]: 42.9 µM (active)
EC50 [12]: 35.6 µM (active)
